Experiments:
Pancreatic elastase = Pancreatic elastase (Sus scrofa, UniProt P08419+P00772); test: Inhibition of pig pancreatic elastase using MeO-Suc-Ala-Ala-Pro-Val-AMC as substrate incubated for 30 mins prior to substrate addition measured for 30 mins by fluorescence assay; type: protein assay
[1] = Inhibition of human chymotrypsin using Suc-Ala-Ala-Pro-Phe-7-amino-4-methylcoumarin as substrate measured for 30 mins by spectrophotometry
[2] = Half life in human plasma by HPLC analysis; type: ADME, cell-free
Myeloblastin = target: T1, Myeloblastin (Homo sapiens, UniProt P24158); test: Inhibition of human proteinase 3 using N-MeOSuc-Ala-Ala-Pro-Val-p-nitroanilide as substrate measured for 30 mins by spectrophotometry
T1 sequence (P24158 whole entry): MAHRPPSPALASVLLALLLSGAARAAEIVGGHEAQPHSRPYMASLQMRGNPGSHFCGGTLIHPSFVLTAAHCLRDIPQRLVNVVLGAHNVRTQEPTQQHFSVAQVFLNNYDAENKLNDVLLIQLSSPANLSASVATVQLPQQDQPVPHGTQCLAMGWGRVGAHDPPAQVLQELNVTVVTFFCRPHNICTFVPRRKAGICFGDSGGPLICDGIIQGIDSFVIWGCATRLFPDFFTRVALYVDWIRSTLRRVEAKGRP

[3] = target: Urokinase-type plasminogen activator (Homo sapiens, UniProt P00749); test: Inhibition of human urokinase using Z-Gly-Gly-Arg-AMC.HCl as substrate measured for 30 mins by spectrophotometry
NIH3T3 = test: cells; details: Mus musculus, NIH3T3, 24 h
Description: Cytotoxicity against mouse NIH/3T3 cells after 24 hrs by MTT assay

Trypsin = Trypsin (Homo sapiens, UniProt P07477+P07478+P35030); test: Inhibition of human trypsin using Z-Gly-Gly-Arg-AMC.HCl as substrate measured for 30 mins by spectrophotometry; type: protein assay
Prothrombin = Prothrombin (Homo sapiens, UniProt P00734); test: Inhibition of human thrombin using Z-Gly-Gly-Arg-AMC.HCl as substrate measured for 30 mins by spectrophotometry
[4] = Half life in Sprague-Dawley rat liver microsomes by HPLC analysis; type: ADME
Neutrophil elastase = target: T2, Neutrophil elastase (Homo sapiens, UniProt P08246); test: Inhibition of human neutrophil elastase using MeO-Suc-Ala-Ala-Pro-Val-AMC as substrate incubated for 30 mins prior to substrate addition measured for 30 mins by fluorescence assay
T2 sequence (P08246 whole entry): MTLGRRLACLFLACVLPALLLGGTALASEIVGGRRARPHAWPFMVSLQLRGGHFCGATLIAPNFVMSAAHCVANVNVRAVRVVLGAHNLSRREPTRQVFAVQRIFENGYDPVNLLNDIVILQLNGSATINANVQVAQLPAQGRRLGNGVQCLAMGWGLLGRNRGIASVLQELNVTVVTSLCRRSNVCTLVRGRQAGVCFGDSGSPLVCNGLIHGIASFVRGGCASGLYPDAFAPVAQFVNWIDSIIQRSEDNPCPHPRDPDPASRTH

Cathepsin G = target: T3, Cathepsin G (Homo sapiens, UniProt P08311); test: Inhibition of human cathepsin G using Suc-Ala-Ala-Pro-Phe-p-nitroanilide as substrate incubated for 30 mins prior to substrate addition measured for 30 mins by spectrophotometry
T3 sequence (P08311 whole entry): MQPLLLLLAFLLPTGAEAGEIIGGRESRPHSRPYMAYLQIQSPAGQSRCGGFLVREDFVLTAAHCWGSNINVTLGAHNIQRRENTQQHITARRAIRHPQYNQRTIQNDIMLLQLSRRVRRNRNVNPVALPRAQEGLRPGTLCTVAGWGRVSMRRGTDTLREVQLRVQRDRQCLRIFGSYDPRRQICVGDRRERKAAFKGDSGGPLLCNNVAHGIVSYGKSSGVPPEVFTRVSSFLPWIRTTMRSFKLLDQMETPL

HEK-293T = test: Cytotoxicity against human HEK293T cells after 24 hrs by MTT assay; type: cell-based
[5] = Stability of the compound in phosphate buffer at pH 7.4 at 100 uM by HPLC analysis; type: physicochemical; details: pH 7.4, 100 µM
Kallikrein-1 = Kallikrein-1 (Homo sapiens, UniProt P06870); test: Inhibition of human kallikrein using H-Pro-Phe-Arg-AMC acetate salt as substrate measured for 30 mins by spectrophotometry
Plasma = test: Metabolic stability in human plasma by HPLC analysis; type: ADME, cell-free

Sequence of Kallikrein-1 (P06870 whole entry): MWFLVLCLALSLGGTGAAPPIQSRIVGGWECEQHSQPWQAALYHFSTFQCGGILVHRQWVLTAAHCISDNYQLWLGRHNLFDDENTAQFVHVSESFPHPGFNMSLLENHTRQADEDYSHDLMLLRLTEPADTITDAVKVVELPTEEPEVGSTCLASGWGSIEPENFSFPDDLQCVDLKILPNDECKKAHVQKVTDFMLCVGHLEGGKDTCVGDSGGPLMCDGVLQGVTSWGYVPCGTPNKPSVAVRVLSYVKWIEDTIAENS

Row | Compound | IC50 (Pancreatic elastase) [µM] | IC50 [1] [µM] | half-life [2] [min] | IC50 (Myeloblastin) [µM] | IC50 [3] [µM] | IC50 (NIH3T3) [µM] | IC50 (Trypsin) [µM] | IC50 (Prothrombin) [µM] | half-life [4] [min] | IC50 (Neutrophil elastase) [µM] | IC50 (Cathepsin G) [µM] | IC50 (HEK-293T) [µM] | Stability [5] | IC50 (Kallikrein-1) [µM] | Stability (Plasma)
1 | CC(C)(C)C(=O)Oc1coc(CSc2nc3ccccc3s2)cc1=O | > 100 | > 50 | 10.8 | 5.9 | > 50 | > 100 | > 50 | > 50 | < 1 | 0.11 | > 100 | > 100 | Stable | > 50 | 
2 | O=C(Oc1coc(CSc2nnc(NC(=O)C3CC3)s2)cc1=O)c1cccc(F)c1 |  |  |  |  |  |  |  |  |  |  |  |  | Stable |  | 
3 | CC(C)(C)C(=O)Oc1cn(-c2ccccc2)c(CSc2nc3cc(C(=O)O)ccc3o2)cc1=O |  |  |  |  | > 50 |  |  | 8.4 |  |  | 19 |  |  | > 50 | 
4 | CC(C)(C)C(=O)Oc1coc(CSc2nc3cc(C(=O)O)ccc3o2)cc1=O |  |  |  |  | > 50 |  |  | > 50 |  |  | > 100 |  | Stable | > 50 | 
5 | CC(C)(C)C(=O)Oc1ccc(S(=O)(=O)Nc2ccccc2C(=O)NCC(=O)O)cc1 | > 50 | > 2 |  | > 100 | > 2 | > 100 | > 2 | > 2 | 19.9 |  | > 100 | > 100 | Stable | > 2 | Stable
6 | O=C(Oc1cn(-c2ccccc2)c(CSc2nc3ccccc3s2)cc1=O)c1ccccc1 |  |  |  |  |  |  |  |  |  | 0.28 |  |  |  |  | 
7 | CC(C)(C)C(=O)Oc1cn(-c2ccccc2)c(CSc2nc3ccccc3s2)cc1=O |  |  |  |  |  |  |  |  |  | 0.96 |  |  |  |  | 

Reference: ChEMBL document CHEMBL3091365, “Optimization of O3-acyl kojic acid derivatives as potent and selective human neutrophil elastase inhibitors” (J Med Chem, 2013)
